Patent US11603356B2, “Amorphous form of a complement component C5a receptor” (CHEMOCENTRYX, INC., priority 2019, dated 2023)
Values after ≈ are worked out from the molar mass of the structure shown.

Columns and labels:
[1] = Solubility in IV formulation saline/PEG400/Tween80; format: physicochemical
Procedure: Intravenous (IV) formulations of a crystalline form of Compound 1 and the amorphous form of Compound 1 were prepared by contacting the amorphous of crystalline Compound 1 with saline/PEG400/Tween80 (88:10:1). The crystalline form of Compound 1 was prepared as described in Example 1, the amorphous form of Compound was prepared as described in Example 2, Method 1.

[2] = In vivo rat PK study, oral aqueous liquid suspension formulation
Procedure: An in vivo rat PK study was conducted to compare the PK profile and bioavailability of crystalline form against amorphous form of Compound 1 in an aqueous liquid suspension formulation, which contained 0.5% w/v Hydroxypropyl Cellulose (Klucel GF grade) and 0.5% w/v Poloxamer F-68 (BASF Kolliphor P188). Each animal was orally administrated 10 mg/kg of Compound 1 at 5 mL/kg dosing volume (a dosing concentration of 2 mg/mL).

[3] = Dynamic vapor sorption (DVS) of the amorphous form; format: physicochemical
Procedure: To evaluate the hygroscopicity and physical stability of the amorphous form of Compound 1 under different humidity, dynamic vapor sorption (DVS) data was collected at 25° C. after the sample was pre-equilibrated at 0% RH to remove unbounded water. DVS was measured using a VTI SGA-100 Vapor Sorption Analyzer. Sorption and desorption data was collected over a range from 5% to 95% RH at 10% RH increments under a nitrogen purge. The equilibrium criterion used for analysis was less than 0.0100% weight change in 5 minutes with a maximum equilibrium time of 3 hours.

[4] = Stability storage test (25° C./60% RH, 12 months; HPLC, KF, XRPD); format: physicochemical; conditions: for Specified Individual Related Substances (HPLC): RRT1.05
Procedure: A sample of amorphous form of Compound 1 was tested by different analytical methods and the data was reported in the “Time Zero” column (Table 3). These analytical methods included: HPLC and Karl Fisher (KF). The sample was placed in double Low-Density Polyethylene (LDPE) bags, sealed with a cable tie, then placed in a High-Density Polyethylene (HDPE) bottle with foil and heat-induction sealed, with 0.5 g desiccant between LDPE bags. The HDPE bottle was stored inside an environment chamber at 25° C. and 60% relative humidity (RH). After 12 months inside the environment chamber, the sample was tested again by the same analytical methods.

[5] = Kinetic solubility in 0.1 N HCl, FaSSGF and FeSSIF at 37° C.; format: physicochemical
Procedure: The in vitro solubility of a crystalline form of Compound 1 and the amorphous form of Compound 1 was tested.
The amorphous form was prepared as described in Example 2, Method 1, and the crystalline form of Compound 1 was prepared as described in Example 1.
Crystalline and amorphous forms of Compound 1 were saturated in three different media: 0.1 N HCl solution, Fasted State Simulated Gastric Fluid (FaSSGF), and Fed State Simulated Intestinal Fluid (FeSSIF). The samples were shaken inside a 37° C. water bath at 40 rpm. The concentration of Compound 1 dissolved in these samples was measured by HPLC at four different time points (0.5, 1, 2 and 4 hours).

[6] = oral 10 mg/kg, suspension in 0.5% w/v Klucel GF and 0.5% w/v Poloxamer F-68, 10 mg/kg

## Cc1ccc(NC(=O)[C@H]2CCCN(C(=O)c3c(C)cccc3F)[C@H]2c2ccc(NC3CCCC3)cc2)cc1C(F)(F)F [Amorphous Compound 1, (2R,3S)-2-(4-(cyclopentylamino)phenyl)-1-(2-fluoro-6-methylbenzoyl)-N-(4-methyl-3-(trifluoromethyl)phenyl)piperidine-3-carboxamide]
[1]; particularly at early time points
  aqueous solubility in an IV formulation compared to the crystalline form: improved the aqueous solubility
[1]; saline/PEG400/Tween80 (88:10:1) IV formulation, aqueous with cosolvent or surfactant or cyclodextrin, thermodynamic from solid, saline/PEG400/Tween80 (88:10:1), 8 Hr.
  solubility at 8 h: 35.6 µg/mL (≈ 61.2 µM)
[1]; saline/PEG400/Tween80 (88:10:1) IV formulation, aqueous with cosolvent or surfactant or cyclodextrin, thermodynamic from solid, saline/PEG400/Tween80 (88:10:1), 24 Hr.
  solubility at 24 h: 28.9 µg/mL (≈ 49.7 µM)
[1]; saline/PEG400/Tween80 (88:10:1) IV formulation, aqueous with cosolvent or surfactant or cyclodextrin, thermodynamic from solid, saline/PEG400/Tween80 (88:10:1), 48 Hr.
  solubility at 48 h: 26.9 µg/mL (≈ 46.2 µM)
[1]; saline/PEG400/Tween80 (88:10:1) IV formulation, aqueous with cosolvent or surfactant or cyclodextrin, thermodynamic from solid, saline/PEG400/Tween80 (88:10:1), 96 Hr.
  solubility at 96 h: 26.3 µg/mL (≈ 45.2 µM)
[1]; saline/PEG400/Tween80 (88:10:1), 0.5 Hr.
  Solubility in IV Formulation: 140.0 µg/mL (≈ 241 µM)
[1]; saline/PEG400/Tween80 (88:10:1), 1 Hr.
  Solubility in IV Formulation: 150.6 µg/mL (≈ 259 µM)
[1]; saline/PEG400/Tween80 (88:10:1), 2 Hr.
  Solubility in IV Formulation: 96.1 µg/mL (≈ 165 µM)
[1]; saline/PEG400/Tween80 (88:10:1), 4 Hr.
  Solubility in IV Formulation: 52.8 µg/mL (≈ 90.8 µM)
[2]; in vivo, oral 10 mg/kg, suspension in 0.5% w/v Klucel GF and 0.5% w/v Poloxamer F-68
  AUC(0-inf): 2470 ng·h/mL
[2]; in vivo, oral 10 mg/kg, suspension in 0.5% w/v Klucel GF and 0.5% w/v Poloxamer F-68, read-out: AUC0-t
  AUC0-t: 2410 ng·h/mL
[2]; in vivo, oral 10 mg/kg, suspension in 0.5% w/v Klucel GF and 0.5% w/v Poloxamer F-68, read-out: Cmax
  Cmax: 388 ng/mL
[2]; oral 10 mg/kg suspension
  Cmax and AUC compared to the formulation containing crystalline form: significant increase in Cmax and AUC
[2]; [6]
  MRT: 5.6 h
  Tmax: 2 h
  t1/2: 4.7 h
[3]; DVS, 25° C.
  hygroscopicity: low hygroscopicity
  hysteresis between adsorption and desorption (DVS plot): no hysteresis
[3]; XRPD, FIG. 7
  form change by XRPD before and after DVS test: no form change
[3]; about 0% RH to about 65% RH at 25° C.
  weight gain after dynamic vapor sorption cycle: about 0.31%
[4]; RRT0.45, Time Zero
  Unspecified Individual Related Substances (HPLC): RRT0.45: <0.05%
[4]; RRT0.50, Time Zero
  Unspecified Individual Related Substances (HPLC): RRT0.50: <0.05%
[4]; RRT0.90, Time 12 months (25° C./60% RH)
  Unspecified Individual Related Substances (HPLC): RRT0.90: 0.20%
[4]; RRT0.90, Time Zero
  Unspecified Individual Related Substances (HPLC): RRT0.90: 0.05%
[4]; RRT0.96, Time 12 months (25° C./60% RH)
  Unspecified Individual Related Substances (HPLC): RRT0.96: <0.05%
[4]; RRT0.96, Time Zero
  Unspecified Individual Related Substances (HPLC): RRT0.96: <0.05%
[4]; Time 12 months (25° C./60% RH)
  Specified Individual Related Substances (HPLC): RRT1.05: <0.05%
  Appearance: Off-white Powder
  Potency (HPLC): 98.9% w/w
  Total Impurities and Related Substances (HPLC): 0.20%
  Water Content (KF): 0.31%
  enantiomeric impurity: 0.0%
[4]; Time Zero
  Specified Individual Related Substances (HPLC): RRT1.05: 0.08%
  Appearance: Off-white Powder
  Potency (HPLC): 99.5% w/w
  Total Impurities and Related Substances (HPLC): 0.38%
  Water Content (KF): 0.33%
  enantiomeric impurity: 0.0%
[4]; RRT1.06, Time 12 months (25° C./60% RH)
  Unspecified Individual Related Substances (HPLC): RRT1.06: 0.07%
[4]; RRT1.14, Time 12 months (25° C./60% RH)
  Unspecified Individual Related Substances (HPLC): RRT1.14: <0.05%
[4]; RRT1.14, Time Zero
  Unspecified Individual Related Substances (HPLC): RRT1.14: 0.05%
[4]; RRT1.16, Time Zero
  Unspecified Individual Related Substances (HPLC): RRT1.16: <0.05%
[4]; RRT1.20, Time Zero
  Unspecified Individual Related Substances (HPLC): RRT1.20: 0.22%
[4]; RRT1.21, Time Zero
  Unspecified Individual Related Substances (HPLC): RRT1.21: 0.06%
[4]; RRT1.22, Time Zero
  Unspecified Individual Related Substances (HPLC): RRT1.22: <0.05%
[5]; 0.1N HCl (pH 1.06), 0.5 Hr.
  CCX168 Solubility at 37° C.: 47.5 µg/mL
[5]; 0.1N HCl (pH 1.06), 1 Hr.
  CCX168 Solubility at 37° C.: 54.0 µg/mL
[5]; 0.1N HCl (pH 1.06), 2 Hr.
  CCX168 Solubility at 37° C.: 74.7 µg/mL
[5]; 0.1N HCl (pH 1.06), 4 Hr.
  CCX168 Solubility at 37° C.: 61.7 µg/mL
[5]; FaSSGF (pH 1.64), 0.5 Hr.
  CCX168 Solubility at 37° C.: 9.3 µg/mL
[5]; FaSSGF (pH 1.64), 1 Hr.
  CCX168 Solubility at 37° C.: 7.8 µg/mL
[5]; FaSSGF (pH 1.64), 2 Hr.
  CCX168 Solubility at 37° C.: BQL (BQL = Less than 3.1 μg/mL)
[5]; FaSSGF (pH 1.64), 4 Hr.
  CCX168 Solubility at 37° C.: ND (ND = Not Detected)
[5]; FeSSIF (pH 4.90), 0.5 Hr.
  CCX168 Solubility at 37° C.: 6.0 µg/mL
[5]; FeSSIF (pH 4.90), 1 Hr.
  CCX168 Solubility at 37° C.: 9.9 µg/mL
[5]; FeSSIF (pH 4.90), 2 Hr.
  CCX168 Solubility at 37° C.: 9.0 µg/mL
[5]; FeSSIF (pH 4.90), 4 Hr.
  CCX168 Solubility at 37° C.: 7.4 µg/mL
